The assay has as its target T1, ligand binding domain of human RORγ (A262-S507) (Homo sapiens, UniProt P51449).
T1 construct: made in house; host or cells: E. coli
T1 sequence (P51449 262-507): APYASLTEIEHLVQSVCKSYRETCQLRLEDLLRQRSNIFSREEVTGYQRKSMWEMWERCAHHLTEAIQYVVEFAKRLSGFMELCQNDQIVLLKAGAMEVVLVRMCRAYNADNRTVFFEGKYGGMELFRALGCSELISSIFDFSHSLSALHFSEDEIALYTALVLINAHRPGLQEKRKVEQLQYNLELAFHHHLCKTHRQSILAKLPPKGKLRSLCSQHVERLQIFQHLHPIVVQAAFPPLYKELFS
The experiment in a line: General RORγ SPA binding assay (competition with [3H]25-hydroxycholesterol). Conditions: RORγ SPA binding assay, inhibition of [3H]25-hydroxycholesterol binding; read-out: IC50. In outline: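 N-terminally His-tagged protein was expressed in E. coli and nickel-purified. Then 50 nM protein was preincubated with compound for 15 min at room temperature in PBS with 0.5% fatty acid free BSA, followed by radioligand for 15 min and copper His-tag SPA beads for 30 min. IC50 came from percent inhibition of binding.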

Here are results for one molecule from US10035790B2, “RORγ modulators” (BRISTOL-MYERS SQUIBB COMPANY, priority 2012, dated 2018).

Structures are written as SMILES.

As usually defined, the IC50 is the concentration needed to halve the response being measured.

Turning to `Cc1cc(C)cc(CNC(=O)c2c(C)nc(C)nc2C2CCN(C(=O)Cc3c(F)cccc3F)CC2)c1` [Compound A80, 4-(1-(2-(2,6-difluorophenyl)acetyl)piperidin-4-yl)-N-(3,5-dimethylbenzyl)-2,6-dimethylpyrimidine-5-carboxamide], the IC50 was 9.8 nM.
